Measured values as given in PMC5839409, “Targeting intracellular B2 receptors using novel cell-penetrating antagonists to arrest growth and induce apoptosis in human triple-negative breast cancer” (Oncotarget, 2018).

Key:
MDA-MB-231 cells [1] = assay: MTT cytotoxicity (cell viability) assay; assay type: cell-based, human; settings: MTT assay after 72h drug exposure; means ± s.e.m., n = 6 to 8; read-out: IC50 values (cytocidal activity)
Method: Cell proliferation assay on MDA-MB-231 cells was determined with colorimetric MTT as we described. Briefly, cells were seeded in a 96 wells plate at 2,000 cells/well in DMEM media supplemented with 10% FBS for 24h at 37°C. Cells were then incubated with and without the B2RAs at the indicated concentrations for the time shown. At the end of treatment period, MTT (0.25 mg/ml) was added to the cells and incubated for 1h30 at 37°C. Thereafter, the cell medium was removed, the formazan product solubilized in acidified isopropanol (100 µl of 1N HCl/anhydrous isopropanol 1:25) and the absorbance determined at 570 nm with an ELISA microplate reader (Spectra Max Plus, Molecular Devices, Sunnyvale, CA). For assessing the cytotoxicity of B2RAs and chemotherapeutic agents (carmustine, doxorubicin, carboplatin, temozolomide and paclitaxel), cells were grown to confluency in multi-well plates and exposed to starving media (DMEM without FBS) for 24h before beginning of the antagonist treatment. Cells were then incubated with MTT and treated exactly as described above. Cell viability was expressed as a percentage of optical density (OD) values obtained upon treatment relative to control.

MDA-MB-231 cells [2] = assay: PI staining cell cycle analysis by flow cytometry; assay type: cell-based, human; settings: 24 h treatment; HOE 140 up to 100 μM
Method: MDA-MB-231 were plated at 500,000/plate in 10 cm plates containing medium (10% FBS/DMEM), and allowed to adhere for about 18 h. Thereafter, cells were serum-starved and treated with and without the B2RAs at the indicated concentrations for 24 h. At the end of treatments, cells were harvested, rinsed and fixed with ice cold ethanol 95%, for 2 h at 4°C. Fixed cells were rehydrated with 800 µl PBS for 30 min, and then washed again with PBS to remove all traces of ethanol. Cells were treated with RNase for 30 min prior to staining. PI was added to cell suspension at a concentration of 15 µg/ml and incubated overnight at 4°C. PI staining was assessed by flow cytometry using a FACSCanto II flow cytometer (BD Biosciences).

MDA-MB-231 cells [3] = assay: Drug-drug synergy experiments (MTT, combination index); assay type: cell-based, human; settings: IC25 ratios, 72h, CalcuSyn
Method: Interactions (synergy, additive, antagonistic activities) between CP-B2RAs (FR173657 and NG68) and chemotherapeutic drugs (doxorubicin and paclitaxel) were evaluated using MTT standard assays. Twenty-four hours after seeding, cells were treated with CP-B2RAs, the other testing drug, or in combination. For combination testing, CP-B2RAs or the other testing drugs were added to plate in triplicate wells in ratios of IC25 (IC25A: IC25B), and cells are incubated in drug-treated medium for 72h and cell viability determined by MTT. Synergy was determined by calculating combination index (CI) value with the formula CI = (CA,X / ICx,A) + (CB,X / ICx,B), where CA,X and CB,X are concentrations of drug A and drug B used in combination to achieve x% drug effect. ICx,A and ICx,B are concentrations for single agents to achieve the same effect. A CI of less than, equal to, and more than 1 indicates synergy, additivity, and antagonism, respectively.

MDA-MB-231 cells [4] = assay: Western blot of cell cycle, apoptosis and p38 proteins; assay type: cell-based, human
Method: For western blot analysis, appropriate amount of cell lysates or membrane and nuclear fractions (25–50 µg protein) were denatured, resolved on 9–12% SDS–PAGE and electrotransferred onto PVDF membranes. Blots were blocked using 5% nonfat dry milk and probed using appropriate primary antibodies in blocking buffer overnight at 4°C.

MDA-MB-231 cells [5] = assay: Annexin V/PI apoptosis and beta-galactosidase senescence assays; assay type: cell-based, human; settings: Annexin V and active caspase-3 positivity 24h; β-galactosidase 72h
Method: The effect of B2RAs on cellular senescence was assessed using the Senescence β-Galactosidase Staining Kit (Cell Signaling). MDA-MB-231 cells were plated at 500 000 cells/well in 6-well plates, and serum-starved right before the beginning of treatments. Cells were treated with and without the B2RAs at the indicated concentrations for 72 h. At the end of treatment, surviving cells were fixed with 2% formaldehyde, 0.2% glutaraldehyde for 15 min at room temperature. Fixed cells were then washed and stained with fresh senescence-associated β-galactosidase stain solution (sodium phosphate buffer, pH 6.0, containing 1mg of X-gal (5-bromo-4-chloro-3-indolyl-β-d-galactopyranoside)/ml 40 mM citric acid, 5 mM potassium ferrocyanide, 5 mM potassium ferricyanide, 150 mM NaCl, 2 mM MgCl2) at 37°C. Staining was detected by light microscopy. As a positive control for senescence, we serum starved porcine cerebral microvascular endothelial cells (pCMVEC) (kindly provided by S Chemtob) for 48 h.
MDA-MB-231 and COS-1 cells were plated at 500,000/well in 6-well plates containing medium (10% FBS/DMEM), and allowed to adhere for about 18 h. On the next day, cells were serum-starved and then treated with and without the B2RAs at the indicated concentrations for 24 h. To assess induction of apoptosis due to treatment, we used the Annexin-V-FLUOS Staining kit (Roche) according to manufacturer’s specifications. Briefly, at the end of treatments, cells were harvested, rinsed and incubated in 100 µl of Annexin-V-FLUOS labeling solution (containing 2 µl of Annexin-V-Fluos reagent and 1 µl of PI (15 µg/ml)) for 15 min at room temperature. Cells were analyzed on a FACSCanto II flow cytometer (BD Biosciences). Early stage apoptosis was measured using annexin V-Fluos (RocheMolecular Biochemicals) in conjunction with PI (Sigma) to distinguish among early apoptosis and late apoptosis/necrosis. Bar diagram showing the distribution of early, late/necrotic cell populations.

[6] = target: T1, B2R endogenously expressed in the human de-endothelized umbilical veins (Homo sapiens, UniProt P30411); settings: antagonist, reduction of BK submaximal contraction; means ± s.e.m.; ref [34]; read-out: Bioassay hUV IC50; cited from earlier work
T1 construct: B2R endogenously expressed in the human de-endothelized umbilical veins (hUV); from tissue; host or cells: human umbilical vein, de-endothelized
T1 sequence (P30411 1-391): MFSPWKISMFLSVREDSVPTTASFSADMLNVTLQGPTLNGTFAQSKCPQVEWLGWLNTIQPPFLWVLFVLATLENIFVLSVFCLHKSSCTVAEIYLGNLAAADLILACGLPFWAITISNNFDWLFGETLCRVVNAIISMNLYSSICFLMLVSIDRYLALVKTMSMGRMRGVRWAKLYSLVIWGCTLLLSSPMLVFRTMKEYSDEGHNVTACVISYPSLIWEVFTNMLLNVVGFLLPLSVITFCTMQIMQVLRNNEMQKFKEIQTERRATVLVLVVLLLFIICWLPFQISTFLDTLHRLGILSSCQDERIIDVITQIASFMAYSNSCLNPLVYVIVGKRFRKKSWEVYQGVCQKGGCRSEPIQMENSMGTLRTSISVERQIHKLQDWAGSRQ

[7] = 24h treatment, whole-cell lysates

CC(=O)Nc1ccc(/C=C/C(=O)NCC(=O)N(C)c2ccc(Cl)c(COc3cccc4ccc(C)nc34)c2Cl)cn1 [FR 173657]
IC50 (MDA-MB-231 cells [1]): 20 ± 1 µM | cell cycle distribution (MDA-MB-231 cells [2]): tend to induce G0/G1 cell cycle arrest | combination index (CI) (MDA-MB-231 cells [3]; combination with doxorubicin): below 1 | combination index (CI) (MDA-MB-231 cells [3]; combination with paclitaxel): below 1 | expression of BAD and p27Kip1 (MDA-MB-231 cells [4]; [7]): increased expression | levels of MAPK and cyclin A (MDA-MB-231 cells [4]; [7]): decreased the levels of MAPK and cyclin A | levels of anti-apoptotic protein XIAP (MDA-MB-231 cells [4]; [7]): appeared to reduce the levels | phosphorylation of p38 (MDA-MB-231 cells [4]; over time): significantly increased the phosphorylation | induction of apoptosis / senescence (MDA-MB-231 cells [5]): underwent apoptosis, but not senescence | IC50 [6]: 0.006 ± 0.0008 µM
